From publication PMC7170901, “Design and efficient synthesis of pyrazoline and isoxazole bridged indole C-glycoside hybrids as potential anticancer agents” (Scientific Reports, 2020)

Test system: MDA-MB-231 (human breast cancer) cell line
Test: MTT cell viability assay in MDA-MB-231 cells
Format: cell-based
Settings: 72 h, MTT; for viability at 10 µM / viability at 25 µM / viability at 50 µM: Homo sapiens, MDA-MB-231, 72 h, read-out: Cell Viability (%) ± SD
Method: IC50 values were determined by plotting values of percent cell viability against concentration of each of these compounds. […] The experiments were performed in triplicates, n = 3 and ± SE value was calculated for each data point.
The human breast cancer cell line MDA-MB-231 were cultured in Dulbecco’s Modified Eagle’s Medium (DMEM) (Gibco, St. Louis, USA) supplemented with 10% heat inactivated FBS (Fetal Bovine Serum, Gibco, USA) and 1% penicillin-streptomycin (Gibco Canada) in humidified CO2 incubator at 37 °C. The cells were maintained as a monolayer in 100 mm culture plate. The cells used for each experiment were of less than 8 passage number. Sub culturing of cells was performed every third day, followed by trypsin EDTA treatment.
Cell viability assay was performed as per standard protocols. […] Ltd, India). In brief, this is a homogeneous, colorimetric method for determining the number of viable cells in proliferation, cytotoxicity or chemosensitivity assays. MTT is bio reduced by cells into a formazan product that is soluble in the tissue culture medium. […] The absorbance of the formazan product at 595 nm was measured directly from 96-well assay plates without additional processing using a multimode plate reader (Bio-Rad) (iMark, India), as absorbance is directly proportional to the number of viable cells in culture. The percentage of viable cells in each group is determined with respect to the untreated control cells.

| SMILES | Cell Viability (%) ± SD (MDA-MB-231, 10 µM, 10 µM) [%] | Cell Viability (%) ± SD (MDA-MB-231, 25 µM, 25 µM) [%] | Cell Viability (%) ± SD (MDA-MB-231, 50 µM, 50 µM) [%] | viability at 10 µM (MDA-MB-231, 10 µM) [%] | viability at 25 µM (MDA-MB-231, 25 µM) [%] | viability at 50 µM (MDA-MB-231, 50 µM) [%] |
| --- | --- | --- | --- | --- | --- | --- |
| O=C(/C=C/c1c[nH]c2ccc([N+](=O)[O-])cc12)C[C@@H]1O[C@H](CO)[C@@H](O)[C@H](O)[C@H]1O [Compound 10, (E)-4-(5-nitro-1H-indol-3-yl)-1-((2S,3R,4R,5S,6R)-3,4,5-trihydroxy-6-(hydroxymethyl)tetrahydro-2H-pyran-2-yl)but-3-en-2-one] | 91.40 ± 10.38 | 84.49 ± 6.74 | 85.37 ± 14.16 | – | – | – |
| O=C(/C=C/c1c[nH]c2ccc(Br)cc12)C[C@@H]1O[C@H](CO)[C@@H](O)[C@H](O)[C@H]1O [Compound 11, (E)-4-(5-bromo-1H-indol-3-yl)-1-((2S,3R,4R,5S,6R)-3,4,5-trihydroxy-6-(hydroxymethyl)tetrahydro-2H-pyran-2-yl)but-3-en-2-one] | – | – | – | 100 ± 23 | 100 ± 8.93 | 108 ± 2.89 |
| O=C(/C=C/c1c[nH]c2ccc(Cl)cc12)C[C@@H]1O[C@H](CO)[C@@H](O)[C@H](O)[C@H]1O [Compound 12, (E)-4-(5-chloro-1H-indol-3-yl)-1-((2S,3R,4R,5S,6R)-3,4,5-trihydroxy-6-(hydroxymethyl)tetrahydro-2H-pyran-2-yl)but-3-en-2-one] | – | – | – | 79.2 ± 8.51 | 89.8 ± 8.75 | 74.8 ± 7.02 |
| O=C(/C=C/c1c[nH]c2ccccc12)C[C@@H]1O[C@H](CO)[C@H](O)[C@H](O)[C@H]1O [Compound 13, (E)-4-(1H-indol-3-yl)-1-((2S,3R,4R,5R,6R)-3,4,5-trihydroxy-6-(hydroxymethyl)tetrahydro-2H-pyran-2-yl)but-3-en-2-one] | – | – | – | 97.6 ± 2.25 | 94.2 ± 1.96 | 84.2 ± 9.22 |
| O=C(/C=C/c1c[nH]c2ccc(Br)cc12)C[C@@H]1O[C@H](CO)[C@H](O)[C@H](O)[C@H]1O [Compound 15, (E)-4-(5-bromo-1H-indol-3-yl)-1-((2S,3R,4R,5R,6R)-3,4,5-trihydroxy-6-(hydroxymethyl)tetrahydro-2H-pyran-2-yl)but-3-en-2-one] | – | – | – | 125 ± 3.51 | 113 ± 23.9 | 67.5 ± 17.7 |
| O=C(/C=C/c1c[nH]c2ccc(Cl)cc12)C[C@@H]1O[C@H](CO)[C@H](O)[C@H](O)[C@H]1O [Compound 16, (E)-4-(5-chloro-1H-indol-3-yl)-1-((2S,3R,4R,5R,6R)-3,4,5-trihydroxy-6-(hydroxylmethyl)tetrahydro-2H-pyran-2-yl)but-3-en-2-one] | – | – | – | 75 ± 14.3 | 89.6 ± 12.9 | 56.7 ± 17.8 |
| O=C(/C=C/c1c[nH]c2ccccc12)C[C@@H]1O[C@H](CO)[C@@H](O)[C@H](O)[C@@H]1O [Compound 17, (E)-4-(1H-indol-3-yl)-1-((2S,3S,4R,5S,6R)-3,4,5-trihydroxy-6-(hydroxymethyl)tetrahydro-2H-pyran-2-yl)but-3-en-2-one] | – | – | – | 84.1 ± 4.09 | 80.5 ± 2.58 | 79.4 ± 10.4 |
| O=C(/C=C/c1c[nH]c2ccc([N+](=O)[O-])cc12)C[C@@H]1O[C@H](CO)[C@@H](O)[C@H](O)[C@H]1O [Compound 18, (E)-4-(5-nitro-1H-indol-3-yl)-1-((2S,3R,4R,5S,6R)-3,4,5-trihydroxy-6-(hydroxylmethyl)tetrahydro-2H-pyran-2-yl) but-3-en-2-one] | – | – | – | 71.7 ± 28.4 | 78.5 ± 6.73 | 69.8 ± 20.4 |
| OC[C@H]1O[C@@H](CC2=NNC(c3c[nH]c4ccccc34)C2)[C@H](O)[C@@H](O)[C@@H]1O (stereo partly drawn) [Compound 21, (2S,3R,4R,5S,6R)-2-((5-(1H-indol-3-yl)-4,5-dihydro-1H-pyrazol-3-yl)methyl)-6-(hydroxy-methyl)tetrahydro-2H-pyran-3,4,5-triol] | – | – | – | 73.5 ± 2.43 | 76.8 ± 2.43 | 75 ± 2.62 |
| O=[N+]([O-])c1ccc2[nH]cc(C3CC(C[C@@H]4O[C@H](CO)[C@@H](O)[C@H](O)[C@H]4O)=NN3)c2c1 (stereo partly drawn) [Compound 22, (2R,3S,4R,5R,6S)-2-(hydroxymethyl)-6-((5-(5-nitro-1H-indol-3-yl)-4,5-dihydro-1H-pyrazol-3-yl)methyl)tetrahydro-2H-pyran-3,4,5-triol] | – | – | – | 70.4 ± 13 | 68.6 ± 11.1 | 70.3 ± 6.17 |
| OC[C@H]1O[C@@H](CC2=NNC(c3c[nH]c4ccc(Br)cc34)C2)[C@H](O)[C@@H](O)[C@@H]1O (stereo partly drawn) [Compound 23, (2 S,3 R,4 R,5 S,6 R)-2-((5-(5-bromo-1H-indol-3-yl)-4,5-dihydro-1H-pyrazol-3-yl)methyl)-6-(hydroxymethyl)tetrahydro-2H-pyran-3,4,5-triol] | – | – | – | 105 ± 11.3 | 88.8 ± 2.22 | 81.5 ± 5.45 |
| OC[C@H]1O[C@@H](CC2=NNC(c3c[nH]c4ccc(Cl)cc34)C2)[C@H](O)[C@@H](O)[C@@H]1O (stereo partly drawn) [Compound 24, (2 S,3 R,4 R,5 S,6 R)-2-((5-(5-chloro-1H-indol-3-yl)-4,5-dihydro-1H-pyrazol-3-yl)methyl)-6-(hydroxymethyl)tetrahydro-2H-pyran-3,4,5-triol] | – | – | – | 82.2 ± 3.5 | 77.5 ± 8.96 | 77.7 ± 2.56 |
| O=[N+]([O-])c1ccc2[nH]cc(C3CC(C[C@@H]4O[C@H](CO)[C@H](O)[C@H](O)[C@H]4O)=NN3)c2c1 (stereo partly drawn) [Compound 26, (2 S,3 R,4 R,5 R,6 R)-2-((5-(5-nitro-1H-indol-3-yl)-4,5-dihydro-1H-pyrazol-3-yl)methyl)-6-(hydroxymethyl)tetrahydro-2H-pyran-3,4,5-triol] | – | – | – | 101 ± 9.67 | 98.25 ± 0.34 | 99.5 ± 1.88 |
| OC[C@H]1O[C@@H](CC2=NNC(c3c[nH]c4ccc(Br)cc34)C2)[C@H](O)[C@@H](O)[C@H]1O (stereo partly drawn) [Compound 27, (2 S,3 R,4 R,5 R,6 R)-2-((5-(5-bromo-1H-indol-3-yl)-4,5-dihydro-1H-pyrazol-3-yl)methyl)-6-(hydroxymethyl)tetrahydro-2H-pyran-3,4,5-triol] | – | – | – | 90 ± 7.7 | 90.8 ± 7.09 | 97.7 ± 10.1 |
| OC[C@H]1O[C@@H](CC2=NNC(c3c[nH]c4ccc(Cl)cc34)C2)[C@H](O)[C@@H](O)[C@H]1O (stereo partly drawn) [Compound 28, (2 S,3 R,4 R,5 R,6 R)-2-((5-(5-chloro-1H-indol-3-yl)-4,5-dihydro-1H-pyrazol-3-yl)methyl)-6-(hydroxymethyl)tetrahydro-2H-pyran-3,4,5-triol] | – | – | – | 99.5 ± 10.2 | 95.2 ± 13.6 | 63.4 ± 17.5 |
| OC[C@H]1O[C@@H](CC2=NNC(c3c[nH]c4ccccc34)C2)[C@@H](O)[C@@H](O)[C@@H]1O (stereo partly drawn) [Compound 29, (2 S,3 S,4 R,5 S,6 R)-2-((5-(1H-indol-3-yl)-4,5-dihydro-1H-pyrazol-3-yl)methyl)-6-(hydroxy-methyl)tetrahydro-2H-pyran-3,4,5-triol] | – | – | – | 82.2 ± 7.65 | 76.6 ± 6.58 | 73.5 ± 8.45 |
| O=[N+]([O-])c1ccc2[nH]cc(C3CC(C[C@@H]4O[C@H](CO)[C@@H](O)[C@H](O)[C@@H]4O)=NN3)c2c1 (stereo partly drawn) [Compound 30, (2 S,3 S,4 R,5 S,6 R)-2-((5-(5-nitro-1H-indol-3-yl)-4,5-dihydro-1H-pyrazol-3-yl)methyl)-6-(hydroxymethyl)tetrahydro-2H-pyran-3,4,5-triol] | – | – | – | 93.8 ± 5.85 | 92.1 ± 8 | 88 ± 1.1 |
| OC[C@H]1O[C@@H](CC2=NNC(c3c[nH]c4ccc(Br)cc34)C2)[C@@H](O)[C@@H](O)[C@@H]1O (stereo partly drawn) [Compound 31, (2 S,3 S,4 R,5 S,6 R)-2-((5-(5-bromo-1H-indol-3-yl)-4,5-dihydro-1H-pyrazol-3-yl)methyl)-6-(hydroxymethyl)tetrahydro-2H-pyran-3,4,5-triol] | – | – | – | 91.4 ± 3.62 | 90.1 ± 6.77 | 87.6 ± 6.27 |
| OC[C@H]1O[C@@H](CC2=NNC(c3c[nH]c4ccc(Cl)cc34)C2)[C@@H](O)[C@@H](O)[C@@H]1O (stereo partly drawn) [Compound 32, (2 S,3 S,4 R,5 S,6 R)-2-((5-(5-chloro-1H-indol-3-yl)-4,5-dihydro-1H-pyrazol-3-yl)methyl)-6-(hydroxymethyl)tetrahydro-2H-pyran-3,4,5-triol] | – | – | – | 74.6 ± 4.7 | 78.5 ± 4.44 | 66.5 ± 7.27 |
| OC[C@H]1O[C@@H](Cc2cc(-c3c[nH]c4ccccc34)on2)[C@H](O)[C@@H](O)[C@@H]1O [Compound 33, (2 S,3 R,4 R,5 S,6 R)-2-((5-(1H-indol-3-yl)isoxazol-3-yl)methyl)-6-(hydroxymethyl) tetrahydro-2H-pyran-3,4,5-triol] | – | – | – | 104 ± 12.7 | 106 ± 7.4 | 92.6 ± 15.2 |
| OC[C@H]1O[C@@H](Cc2cc(-c3c[nH]c4ccc(Br)cc34)on2)[C@H](O)[C@@H](O)[C@@H]1O [Compound 35, (2 S,3 R,4 R,5 S,6 R)-2-((5-(5-bromo-1H-indol-3-yl)isoxazol-3-yl)methyl)-6-(hydroxy-methyl)tetrahydro-2H-pyran-3,4,5-triol] | – | – | – | 95.5 ± 4.91 | 95.3 ± 3.6 | 93.9 ± 9.08 |
